Reference: ChEMBL document CHEMBL1139916, “6-hydroxy to 6'''-amino tethered ring-to-ring macrocyclic aminoglycosides as probes for APH(3')-IIIa kinase” (2007)

Experiments:
[1] = Activity of bacterial APH(3')-3a kinase assessed high affinity phosphorylation
[2] = Activity of bacterial APH(3')-3a kinase assessed low affinity phosphorylation
[3] = Ratio of Kcat/Km of bacterial APH(3')-3a kinase-mediated high affinity phosphorylation
[4] = Ratio of Kcat/Km of bacterial APH(3')-3a kinase-mediated low affinity phosphorylation
[5] = system: Staphylococcus aureus; assay: Growth inhibition of Staphylococcus aureus; type: functional
[6] = system: Escherichia coli; assay: Growth inhibition of Escherichia coli; type: functional
[7] = Activity of bacterial APH(3')-3a kinase
[8] = Ratio of Kcat/Km of bacterial APH(3')-3a kinase

| MIC [5] | MIC [6] | Km [7] | Vmax [7] | kcat [7] | kcat/Km [8] | Structure (SMILES) | Km [1] | Vmax [1] | kcat [1] | Km [2] | Vmax [2] | kcat [2] | kcat/Km [3] | kcat/Km [4] |
| --- | --- | --- | --- | --- | --- | --- | --- | --- | --- | --- | --- | --- | --- | --- |
|  |  |  |  |  |  | NC[C@@H]1O[C@H](O[C@H]2[C@@H](O)[C@H](O[C@@H]3[C@@H](O)[C@H](N)C[C@H](N)[C@H]3O[C@H]3O[C@H](CO)[C@@H](O)[C@H](O)[C@H]3N)O[C@@H]2CO)[C@H](N)[C@@H](O)[C@@H]1O | 16.9 µM | 0.183 µM/s | 0.19 s⁻¹ | 51.1 µM | 0.292 µM/s | 0.304 s⁻¹ | 1.12 10^4/M/s | 5.95 10^3/M/s |
| > 40 µg/mL | > 10 µg/mL |  |  |  |  | N[C@H]1[C@H]2O[C@H]3[C@@H](O)[C@H](O[C@@H]4[C@@H](OCCCCCNC[C@H](O2)[C@@H](O)[C@@H]1O)[C@H](N)C[C@H](N)[C@H]4O[C@H]1O[C@H](CO)[C@@H](O)[C@H](O)[C@H]1N)O[C@@H]3CO |  |  |  |  |  |  |  |  |
| > 40 µg/mL | > 10 µg/mL | 21.8 µM | 0.07 µM/s | 0.073 s⁻¹ | 3.35 10^3/M/s | N[C@H]1[C@H]2O[C@H]3[C@@H](O)[C@H](O[C@@H]4[C@@H](OCCCCC(=O)NC[C@H](O2)[C@@H](O)[C@@H]1O)[C@H](N)C[C@H](N)[C@H]4O[C@H]1O[C@H](CO)[C@@H](O)[C@H](O)[C@H]1N)O[C@@H]3CO |  |  |  |  |  |  |  |  |
